One data set concerns the target T1, CYP2b1 (Rattus norvegicus, UniProt P00176).
T1 sequence (P00176 1-491): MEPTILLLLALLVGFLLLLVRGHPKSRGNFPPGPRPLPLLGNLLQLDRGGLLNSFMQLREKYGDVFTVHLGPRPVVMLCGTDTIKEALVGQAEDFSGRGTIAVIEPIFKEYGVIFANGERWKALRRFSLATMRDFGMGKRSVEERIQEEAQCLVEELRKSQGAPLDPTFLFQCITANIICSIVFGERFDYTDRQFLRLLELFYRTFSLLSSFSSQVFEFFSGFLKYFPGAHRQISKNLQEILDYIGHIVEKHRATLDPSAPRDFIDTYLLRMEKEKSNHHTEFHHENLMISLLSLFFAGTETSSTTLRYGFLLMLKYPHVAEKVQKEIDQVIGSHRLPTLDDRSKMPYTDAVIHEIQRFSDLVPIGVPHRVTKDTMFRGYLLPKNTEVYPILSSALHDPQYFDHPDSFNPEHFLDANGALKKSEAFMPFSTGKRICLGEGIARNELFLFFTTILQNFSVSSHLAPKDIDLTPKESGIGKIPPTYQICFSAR
Details: from tissue; host or cells: live male Sprague-Dawley rats (whole animal, mainly liver). The following applies: in vivo.

In a further data set the target is CYP2e1 (Rattus norvegicus, UniProt P05182). The conditions noted are these: in vivo. On the procedure: The effect of the Zhicaowu–Hezi combination on CYP450 enzymes in rats was evaluated by examining the pharmacokinetics of theophylline (CYP1a2), metoprolol (CYP2d2), bupropion (CYP2b1), omeprazole (CYP2c13), chlorzoxazone (CYP2e1), testosterone (CYP3a1), and diclofenac (CYP2c11).
CYP2e1, sequence (P05182 whole entry): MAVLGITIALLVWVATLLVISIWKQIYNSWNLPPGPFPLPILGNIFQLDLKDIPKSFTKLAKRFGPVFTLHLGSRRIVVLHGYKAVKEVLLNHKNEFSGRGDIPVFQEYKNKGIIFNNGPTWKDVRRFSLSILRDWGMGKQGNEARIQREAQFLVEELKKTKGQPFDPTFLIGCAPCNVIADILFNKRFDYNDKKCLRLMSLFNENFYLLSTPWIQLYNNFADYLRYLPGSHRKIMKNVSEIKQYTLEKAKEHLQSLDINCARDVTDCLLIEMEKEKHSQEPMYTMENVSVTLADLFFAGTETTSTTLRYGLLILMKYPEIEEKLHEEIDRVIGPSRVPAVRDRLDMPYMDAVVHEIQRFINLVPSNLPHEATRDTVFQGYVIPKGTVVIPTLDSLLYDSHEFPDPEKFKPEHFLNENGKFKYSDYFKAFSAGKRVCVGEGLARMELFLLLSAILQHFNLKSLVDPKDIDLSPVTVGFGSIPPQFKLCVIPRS
The collected blood was placed in sodium heparin-treated centrifuge tubes and centrifuged at 4°C for 10 min at 3,000 RPM. […] After 10 min of sedimentation, the supernatant was extracted through a 0.22-μm microporous membrane, 20 μL of which was injected into HPLC. The pharmacokinetic parameters of each probe drug were calculated using the non-atrial compartment model in Drug and Statistics software (DAS, 3.0; Shanghai, China).

The structures appear in SMILES notation.

Regarding `CCC1(c2ccccc2)C(=O)NC(=O)NC1=O` [P, phenobarbital sodium], on CYP2b1, the “bupropion AUC(0-t)” value is 13249 ± 1396 ng·h/mL, the “bupropion AUC(0-∞)” value turned out to be 13714 ± 1057 ng·h/mL, the “bupropion CLz/F” value is 7.53418 ± 1.2563 mL/min/kg and the “bupropion Cmax” value stood at 1151 ± 138 ng/mL. Further, the “bupropion t1/2 z” value at CYP2b1 stood at 15.564 ± 0.555 h. Moreover, at CYP2e1, the “chlorzoxazone AUC(0-t)” value came out at 32754 ± 4037 ng·h/mL, the “chlorzoxazone AUC(0-∞)” value worked out at 47632 ± 6051 ng·h/mL, the “chlorzoxazone CLz/F” value came out at 13.4061 ± 1.1103 mL/min/kg and the “chlorzoxazone Cmax” value is 3543 ± 431 ng/mL. Further, the “chlorzoxazone t1/2 z” value at CYP2e1 is listed as 13.368 ± 1.308 h.

The values are drawn from PMC12301304 (Frontiers in Pharmacology, 2025).
